Assay results reported in patent publication US8765808B2, “Treatment or prevention of cancer and precancerous disorders” (CHS Pharma, Inc., priority 2005, dated 2014).
Read-outs that look alike come from different tables or passages of the source.

Tests used:
[1] = system: SCC-25 squamous cell skin cancer cell line; assay: MTS cell viability after pretreatment and oxidative stress, SCC skin cancer cells; type: cell-based, human; details: for sensitizing skin cancer cells to killing by TBHP: other NSAIDs at comparable active concentrations, compared to sulindac; for enhancing the killing of skin cancer cells (SCC-25) when exposed to TBHP: 24 hr pretreatment with 500 μM sulindac sulfone, 500 μM SMO or 50 μM sulindac sulfide, TBHP 2 hr (FIG. 14); for cancer killing effect of epimers, SCC cells: 500 μM 24 hours, then TBHP 2 hours (FIG. 24)
Method: (§1) SCC-25 is a human squamous cell carcinoma cell line developed by J G Rheinwald [Rheinwald, 1981]. […] The cells were maintained in minimum essential medium (Eagle) supplemented with 2 mM L-glutamine, Earle's BSS containing 1.5 g/L sodium bicarbonate, 0.1 mM non-essential amino acids, 1.0 mM sodium pyruvate and 10% fetal bovine serum.
The experimental approach was to pretreat SCC cells with sulindac for 24 hr prior to exposure to TBHP for 2 hr. Sulindac (Sigma; S-8139) was freshly prepared as a 1M stock solution in 1M Tris.Cl, pH 8.0. SCC cells were suspended in culture medium containing 10% fetal bovine serum at a cell density of 6×10^5 cells/ml. Cell suspensions containing 500 μM sulindac or no sulindac (Control) were plated in 96 well microtiter plates with a total of 6×10^4 cells per well. The plates were incubated for 24 hr at 37° C. in a 5% CO2 incubator. The culture medium was then removed and the cells washed once with fresh culture medium without serum. After removal of the wash solution, fresh culture medium without serum that contained the indicated final concentration of TBHP was added to the cells for 2 hrs. Serum was omitted from the medium during the two-hour exposure to TBHP since TBHP may be rapidly depleted in the presence of serum.

[2] = system: RKO colon cancer cell line; assay: MTS cell viability after pretreatment and oxidative stress, RKO colon cancer cells; type: cell-based, human; details: other NSAIDs at comparable active concentrations, compared to sulindac
Method: as §1, with “RKO” for “SCC-25”, “colon” for “squamous cell”, “Michael Brattain [Brattain, 1984].” for “J G Rheinwald [Rheinwald, 1981].”
Experiments were performed with the RKO colon cancer cells that were pretreated with 500 μM sulindac using TBHP.

[3] = system: lung carcinoma cell line designated A549; assay: MTS cell viability after pretreatment and oxidative stress, lung cancer cells
Method: Cell viability was determined by the [sequence] 96®-Aqueous One Cell Proliferation Assay (Promega) according to the manufacturer's instructions. The assay utilizes a novel tetrazolium compound (3-(4,5-dimethylthiazol-2-yl)-5-(3-carboxymethoxyphenyl)-2-(4-sulfophenyl)-2H-tetrazolium; MTS) and an electron-coupling reagent (phenazine ethosulfate; PES). Metabolically active cells convert the MTS to a water-soluble formazan by the action of cellular dehydrogenases. The amount of formazan produced is measured by absorbance at 490 nm using a colorimetric microtiter plate reader (BIORAD; Model 2550). Absorbance is directly proportional to the number of viable cells.
Experiments using similar methods were performed with a lung carcinoma cell line designated A549. […] Cells were grown in Ham's F12K medium supplemented with final concentrations of 2 mM L-glutamine, 1.6 g/L sodium bicarbonate and 10% fetal bovine serum. Cultures were maintained between 6×10^3-6×10^4 cells/cm^2 in standard tissue culture flasks. The protocol for pretreatment of cells with 500 μM sulindac followed by a two hour exposure to various concentrations of TBHP was the same as that described for the RKO colon cancer cells.
Following a 24 hr pretreatment with 500 μM sulindac, the cells were washed once to remove the excess sulindac before exposure to TBHP for 2 hr.

[4] = cited from earlier work
[5] = system: precancerous growths and/or BCC's; assay: Topical sulindac gel followed by hydrogen peroxide solution in patients; details: applied alone to the skin condition
Cancer Lung cells = assay: Conversion of sulindac epimers to sulindac sulfide in whole cells, lung cancer; type: in vitro ADME; details: 200 μM epimer, 4 hours, serum-free medium
Method: (§2) After the incubations, the cells were pelleted by low speed centrifugation and lysed by the addition of 200 μl of 100% acetonitrile, followed by vigorous vortexing. The lysate was centrifuged for 15 minutes at 14,000×g to pellet cell debris. 50 μl of the supernatant was transferred to an HPLC autosampler microvial. The separation of metabolites is carried out on a 4.6×75 mm C18 reverse-phase column. […] The metabolites are detected at a wavelength of 330 nm.
(§3) The cells are incubated with 200 μM R- or S-Sulindac epimer for 4 hours in a defined, serum-free medium (EX-CELL^SM). After incubation, the cells are collected, rinsed and lysed with acetonitrile. The cytosolic contents are separated on a C-18 column.

[6] = system: Cancer Skin (skin SCC) cells; details: 200 μM epimer, 4 hours, serum-free medium
Method: as §2, §3

HeLa cancer cells = details: 200 μM epimer, 4 hours, serum-free medium
Method: as §2, §3

Normal lung cells = assay: Conversion of sulindac epimers to sulindac sulfide in whole cells, normal lung; type: in vitro ADME; details: 200 μM epimer, 4 hours; for Amount Formed (sulindac sulfide): serum-free medium
Method: as §2, §3

[7] = system: neonatal rat cardiac myocytes; details: for Amount Formed (sulindac sulfide): Normal Cardiomyocyte, 200 μM epimer, 4 hours, serum-free medium
Method: FIG. 23 is a graph showing the metabolic conversion of the R & S epimers of sulindac to the sulfide form in cardiac myocytes. The amount of sulindac sulfide formed by 10^6 cells incubated with 400 μM sulindac, R, S or RS mixture is measured as a function of time of incubation. […] The absorbance was measured at 330 nm.
To inhibit fibroblast growth, 0.1 mM bromodeoxyuridine was included in the medium for the first 3-5 days after plating. Cell cultures are incubated with sulindac or its individual epimers for specified times.
as §2, §3

[8] = system: WM-266-4 Melanoma skin cell line; assay: MTS cell viability after pretreatment and oxidative stress, melanoma cells; type: cell-based, human; details: sulindac sulfide pretreatment
[9] = system: Normal HEK skin cells (human neonatal epidermal keratinocytes); assay: Intracellular ROS by indicator dye fluorescence, normal HEK skin cells; details: Table 4, alone or after Sul 500 uM
Method: Experimental conditions: Normal HEK skin cells plated onto 6-well plates at cell density of 60-70% confluence. Sulindac (0.5 mM)×24 hours (cell density remained about the same) followed by TBHP×2 hours followed by ROS indicator dye (5 μM)×1 hour (Table 1).
Human neonatal epidermal keratinocytes were plated into 6-well plates at a cell density of 60-70% confluence. The cultures were pretreated with sulindac (500 uM) for 34 hours followed by the addition of different concentrations of TBHP for 2 hours. During this period of time, the cell density in the 6-well plates remained the same (there was no increase in cell proliferation). This was followed by the addition of the ROS indicator dye.

SCC skin cancer cells = assay: Intracellular ROS by indicator dye fluorescence, SCC skin cancer cells
Method: SCC skin cancer cells were plated onto 6-well plates at a cell density of 50-60% confluence. The cultures were pretreated with sulindac (500 uM) for 24 hours followed by the addition of TBHP (100 uM) for two hours. During this period of time, the cell density in the 6-well plates increased to 80-90% confluent.

[10] = Table 2, Sul 0.5 mM 24 hours and/or TBHP 100 μM 2 hours
[11] = Table 3, Sul 500 μM 24 hours and/or TBHP 100 μM 2 hours

Question: With `CC(=O)Oc1ccccc1C(=O)O` [Acetylsalicylic acid] as the molecule, how does the “sensitizing skin cancer cells to killing by TBHP” value [1] read?
Answer: ineffective

Question: What about the “sensitizing colon cancer cells to killing by TBHP” value [2] of the same molecule?
Answer: ineffective

Question: For `CC1=C(CC(=O)O)c2cc(F)ccc2/C1=C\c1ccc(S(C)(=O)=O)cc1` [sulindac sulfone], which “enhancing the killing of skin cancer cells (SCC-25) when exposed to TBHP” value [1] is on record?
Answer: effective in enhancing the killing

Question: And the “killing effect in all cancer cell studies” value ([3]; FIG. 15, 500 μM sulindac, 250 μM sulindac sulfone)?
Answer: most potent killing effect

Question: With `OO` [hydrogen peroxide] as the molecule, how does the skin irritation ([4]; 3-8% hydrogen peroxide, 24 hours under occlusive dressing, intact and abraded skin, rabbits) read?
Answer: nonirritating

Question: And the skin irritation ([4]; 10% hydrogen peroxide, 4 hour exposure)?
Answer: slight

Question: What about the skin irritation ([4]; 35% hydrogen peroxide) of the same molecule?
Answer: mild

Question: And the “classification as skin irritant by the European Union criteria” value ([4]; hydrogen peroxide solutions of 35% or less, rabbits)?
Answer: would not be classified as skin irritants

Question: What about the “effect on the precancerous or cancerous growth when applied alone” value [5] of the same molecule?
Answer: no effect

Question: With `CC(C)Cc1ccc(C(C)C(=O)O)cc1` (stereo not shown) [ibuprofen] as the molecule, how does the “sensitizing skin cancer cells to killing by TBHP” value [1] read?
Answer: ineffective

Question: What about the “sensitizing colon cancer cells to killing by TBHP” value [2] of the same molecule?
Answer: ineffective

Question: What does the source list for `O=C(O)Cc1ccccc1Nc1c(Cl)cccc1Cl` [diclofenac sodium]?
Answer: sensitizing skin cancer cells to killing by TBHP [1]: ineffective; sensitizing colon cancer cells to killing by TBHP [2]: ineffective

Question: For `CC1=C(CC(=O)O)c2cc(F)ccc2/C1=C\c1ccc([S@+](C)[O-])cc1` [S-epimer, S-sulindac sulfoxide], which “cancer killing effect of epimers, SCC cells” value [1] is on record?
Answer: comparable in potency to the sulindac racemic mixture

Question: What about the “Amount Formed (sulindac sulfide)” value (Cancer Lung cells) of the same molecule?
Answer: 17.7 picomoles

Question: What about the “Amount Formed (sulindac sulfide)” value [6] of the same molecule?
Answer: 57 picomoles

Question: And the “Amount Formed (sulindac sulfide)” value (HeLa cancer cells)?
Answer: 7.9 picomoles

Question: What about the “Amount Formed (sulindac sulfide)” value (Normal lung cells) of the same molecule?
Answer: 35 picomoles

Question: And the “Amount Formed (sulindac sulfide)” value [7]?
Answer: 120.9 picomoles

Question: What about the “cancer killing effect of epimers, lung cancer cells” value [3] of the same molecule?
Answer: comparable in potency to the sulindac racemic mixture

Question: What does the source list for `CSc1ccc(/C=C2/C(C)=C(CC(=O)O)c3cc(F)ccc32)cc1` [sulindac sulfide]?
Answer: enhancing the killing of skin cancer cells (SCC-25) when exposed to TBHP [1]: not effective; reducing the cell viability of melanoma cells exposed to TBHP [8]: had activity in reducing the cell viability; reducing the cell viability of lung cancer cells exposed to TBHP ([3]; 250 μM sulindac sulfide 24 hr, TBHP 2 hr (FIG. 15)): had activity in reducing the cell viability

Question: For `CC(C)(C)OO` [TBHP, tert-butyl hydroperoxide], which “% Cells containing ROS” value ([9]; TBHP 200 uM 2 hours) is on record?
Answer: 2%

Question: And the “fold increase compared to untreated control” value (“fold increase” below) ([9]; TBHP 200 uM 2 hours)?
Answer: 0 fold

Question: What about the “% Cells containing ROS” value ([9]; TBHP 400 uM 2 hours) of the same molecule?
Answer: 5%

Question: What about the “fold increase” value ([9]; TBHP 400 uM 2 hours) of the same molecule?
Answer: 2 fold

Question: And the “% Cells containing ROS” value ([9]; TBHP 800 uM 2 hours)?
Answer: 60%

Question: And the “fold increase” value ([9]; TBHP 800 uM 2 hours)?
Answer: 20 fold

Question: And the “% Cells with ROS Uptake by Fluorescence” value (SCC skin cancer cells; [10])?
Answer: 11%

Question: And the “fold increase” value (SCC skin cancer cells; [10])?
Answer: 7 fold

Question: What about the “% Cells containing ROS” value (SCC skin cancer cells; [11]) of the same molecule?
Answer: 11%

Question: And the “fold increase” value (SCC skin cancer cells; [11])?
Answer: 7 fold

Question: What about the “ROS levels in SCC skin cancer cells, agent alone” value (SCC skin cancer cells; sulindac 500 uM or TBHP 100 uM alone) of the same molecule?
Answer: enhanced the ROS levels

Question: And the “viable cells without sulindac pretreatment” value ([3]; 1.5-2.0 mM TBHP, 2 hr, untreated (no sulindac) cells)?
Answer: approximately 50%

Question: With `CC1=C(CC(=O)O)c2cc(F)ccc2/C1=C\c1ccc([S+](C)[O-])cc1` (stereo not shown) [R-epimer, R-sulindac sulfoxide] as the molecule, how does the “cancer killing effect of epimers, SCC cells” value [1] read?
Answer: comparable in potency to the sulindac racemic mixture

Question: And the “Amount Formed (sulindac sulfide)” value (Cancer Lung cells)?
Answer: 7.5 picomoles

Question: And the “Amount Formed (sulindac sulfide)” value [6]?
Answer: 35.3 picomoles

Question: And the “Amount Formed (sulindac sulfide)” value (HeLa cancer cells)?
Answer: 9.3 picomoles

Question: And the “R/S (%)” value (Normal lung cells)?
Answer: 6%

Question: And the “R/S (%)” value (Normal lung cells; listed as R epimer)?
Answer: < 10%

Question: What about the “Amount Formed (sulindac sulfide)” value (Normal lung cells) of the same molecule?
Answer: 2.2 picomoles

Question: What about the “Amount Formed (sulindac sulfide)” value [7] of the same molecule?
Answer: 11.6 picomoles

Question: And the “conversion to the sulfide compared to the S-epimer” value ([7]; normal cardiac myocytes, 400 μM, time course (FIG. 23))?
Answer: greater than 10 fold less conversion

Question: And the “cancer killing effect of epimers, lung cancer cells” value [3]?
Answer: comparable in potency to the sulindac racemic mixture

Question: With sulindac methionine sulfoxide [SMO] as the molecule, how does the “enhancing the killing of skin cancer cells (SCC-25) when exposed to TBHP” value [1] read?
Answer: not effective
